How the values were obtained:
[1] = test system: barnyardgrass; assay: Test B pre-/postemergence herbicide test; format: in vivo, Echinochloa crus-galli
In short: (§1)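 Seeds were planted and treated preemergence with compounds formulated in a non-phytotoxic solvent mixture containing surfactant, while plants at the 1- to 4-leaf stage (2 to 18 cm) received postemergence sprays. Flooded paddy plants were grown to the 2-leaf stage. After 13 to 15 days in a greenhouse, injury was visually rated 0–100 against untreated controls.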

[2] = test system: Surinam grass; assay: Test B pre-/postemergence herbicide test; format: in vivo, Urochloa decumbens
In short: (§2)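 Plants compared with untreated controls 13–15 days post-treatment and given a visual 0–100 injury score. Applications: preemergence to seeds; postemergence at 1- to 4-leaf (2–18 cm); paddy species flooded, 2-leaf stage. Vehicle non-phytotoxic, surfactant included.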

[3] = test system: cocklebur; assay: Test B pre-/postemergence herbicide test; format: in vivo, Xanthium strumarium
In short: as §1

[4] = test system: corn; assay: Test B pre-/postemergence herbicide test; format: in vivo, Zea mays
In short: as §2

[5] = test system: large crabgrass; assay: Test B pre-/postemergence herbicide test; format: in vivo, Digitaria sanguinalis
In short: as §2

[6] = test system: giant foxtail; assay: Test B pre-/postemergence herbicide test; format: in vivo, Setaria faberi
In short: as §2

[7] = test system: lambsquarters; assay: Test B pre-/postemergence herbicide test; format: in vivo, Chenopodium album
In short: as §2

[8] = test system: morningglory; assay: Test B pre-/postemergence herbicide test; format: in vivo, Ipomoea coccinea
In short: as §1

[9] = test system: pigweed; assay: Test B pre-/postemergence herbicide test; format: in vivo, Amaranthus retroflexus
In short: as §2

[10] = test system: rice; assay: Test B pre-/postemergence herbicide test; format: in vivo, Oryza sativa; conditions: preemergence; for Plant response rating, Rice: 500 g ai/ha, visual rating
In short: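 Greenhouse pot assay with simultaneous preemergence (treated seed) and postemergence (2–18 cm seedlings) applications of surfactant-containing, non-phytotoxic solvent formulations. Response scored visually 13–15 days later on a 0–100 scale, 100 meaning complete control.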

[11] = test system: velvetleaf; assay: Test B pre-/postemergence herbicide test; format: in vivo, Abutilon theophrasti
In short: as §2

[12] = test system: blackgrass; assay: Test B postemergence herbicide test; format: in vivo, Alopecurus myosuroides
In short: (§3)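 Postemergence plants were sprayed with formulated test chemicals at 2 to 18 cm height (1- to 4-leaf stage); paddy species were grown to the 2-leaf stage. After 13 to 15 days in a greenhouse, injury was rated visually against untreated controls on a 0–100 scale (0 = no effect, 100 = complete control).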

[13] = test system: wheat; assay: Test B postemergence herbicide test; format: in vivo, Triticum aestivum; parameters: key to Wheat plant response rating: 0 = no effect, 100 = complete control
In short: as §3

[14] = test system: wild oat; assay: Test B postemergence herbicide test; format: in vivo, Avena fatua
In short: as §3

[15] = test system: rice; assay: Test B flooded paddy test; format: in vivo, Oryza sativa; conditions: 1000 g ai/ha, scale 0 to 100 (0 no effect, 100 complete control)
In short: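 Formulated test chemicals went onto postemergence plants measuring 2 to 18 cm, at one to four leaves. For the paddy assay, species had reached two leaves. Scoring took place 13–15 days later by eye, relative to untreated plants, using 0 for no effect up to 100 for full control.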

[16] = test system: small flower umbrella sedge; assay: Test B flooded paddy test; format: in vivo, Cyperus difformis; conditions: 1000 g ai/ha, scale 0 to 100 (0 no effect, 100 complete control)
In short: as §3

[17] = test system: ducksalad; assay: Test B flooded paddy test; format: in vivo, Heteranthera limosa; conditions: 1000 g ai/ha, scale 0 to 100 (0 no effect, 100 complete control)
In short: as §3

[18] = test system: barnyardgrass; assay: Test B flooded paddy test; format: in vivo, Echinochloa crus-galli; conditions: 1000 g ai/ha, scale 0 to 100 (0 no effect, 100 complete control)
In short: as §3

[19] = 125 g ai/ha; 0 is no effect, 100 is complete control; preemergence
[20] = 125 g ai/ha; visual rating, scale 0 (no effect) to 100 (complete control); postemergence
[21] = 500 g ai/ha; visual rating, 0 = no effect, 100 = complete control; preemergence
[22] = postemergence, 500 g ai/ha; scale 0 to 100, 0 is no effect, 100 is complete control
[23] = 0 = no effect, 100 = complete control
[24] = 125 g ai/ha; 0 = no effect, 100 = complete control; preemergence
[25] = postemergence, 125 g ai/ha; visual rating, scale 0 (no effect) to 100 (complete control)
[26] = postemergence, 500 g ai/ha; visual rating, scale 0 (no effect) to 100 (complete control)

CCc1cn(C(C)(C)C)nc1C(=O)Nc1cccc(C(=O)N(C)C)n1 [Compound 330]
Plant response rating (0 to 100 scale), Barnyardgrass [1, 19]: 0
Barnyardgrass plant response rating [1, 20]: 0
Plant response rating, Barnyardgrass [1, 21]: 0
Barnyardgrass plant response rating [1, 22]: 0
Plant response rating (0 to 100 scale), Surinam Grass [2, 19]: 0
Surinam Grass plant response rating [2, 20]: 0
Plant response rating, Surinam Grass [2, 21]: 0
Surinam Grass plant response rating [2, 22]: 0
Plant response rating (0 to 100 scale), Cocklebur [3, 19]: 0
Cocklebur plant response rating [3, 20]: 0
Plant response rating, Cocklebur [3, 21]: 0
Cocklebur plant response rating [3, 22]: 0
Plant response rating (0 to 100 scale), Corn [4, 19]: 0
Corn plant response rating [4, 20]: 0
Plant response rating, Corn [4, 21]: 0
Corn plant response rating [4, 22]: 0
Plant response rating (0 to 100 scale), Crabgrass, Large [5, 19]: 0
Crabgrass, Large plant response rating [5, 20]: 0
Plant response rating, Crabgrass, Large [5, 21]: 0
Crabgrass, Large plant response rating [5, 22]: 0
Plant response rating (0 to 100 scale), Foxtail, Giant [6, 19]: 0
Foxtail, Giant plant response rating [6, 20]: 0
Plant response rating, Foxtail, Giant [6, 21]: 0
Foxtail, Giant plant response rating [6, 22]: 0
Plant response rating (0 to 100 scale), Lambsquarters [7, 19]: 0
Lambsquarters plant response rating [7, 20]: 0
Plant response rating, Lambsquarters [7, 21]: 0
Lambsquarters plant response rating [7, 22]: 10
Plant response rating (0 to 100 scale), Morningglory [8, 19]: 0
Morningglory plant response rating [8, 20]: 10
Plant response rating, Morningglory [8, 21]: 0
Morningglory plant response rating [8, 22]: 10
Plant response rating (0 to 100 scale), Pigweed [9, 19]: 0
Pigweed plant response rating [9, 20]: 0
Plant response rating, Pigweed [9, 21]: 0
Pigweed plant response rating [9, 22]: 0
Plant response rating (0 to 100 scale), Rice ([10]; 125 g ai/ha, 0 is no effect, 100 is complete control): 0
Plant response rating, Rice [10, 23]: 0
Plant response rating (0 to 100 scale), Velvetleaf [11, 19]: 0
Velvetleaf plant response rating [11, 20]: 0
Plant response rating, Velvetleaf [11, 21]: 0
Velvetleaf plant response rating [11, 22]: 10
Blackgrass plant response rating [12, 20]: 0
Blackgrass plant response rating [12, 22]: 0
Wheat plant response rating [13, 20]: 0
Wheat plant response rating [13, 22]: 0
Oat, Wild plant response rating [14, 20]: 0
Oat, Wild plant response rating [14, 22]: 20
Rice plant response rating [15]: 0
Sedge, Umbrella plant response rating [16]: 0
Ducksalad plant response rating [17]: 0
Barnyardgrass plant response rating [18]: 0

CCn1nc(C(C)(C)C)cc1C(=O)Nc1nc(C(=O)OC)ccc1OC [Compound 265]
Barnyardgrass plant response rating (0 to 100 scale) [1, 24]: 0
Plant response rating, Barnyardgrass [1, 21]: 0
Barnyardgrass plant response rating [1, 25]: 0
Barnyardgrass plant response rating [1, 26]: 0
Surinam Grass plant response rating (0 to 100 scale) [2, 24]: 0
Plant response rating, Surinam Grass [2, 21]: 40
Surinam Grass plant response rating [2, 25]: 0
Surinam Grass plant response rating [2, 22]: 0
Cocklebur plant response rating (0 to 100 scale) [3, 24]: 0
Plant response rating, Cocklebur [3, 21]: 0
Cocklebur plant response rating [3, 25]: 0
Cocklebur plant response rating [3, 26]: 0
Corn plant response rating (0 to 100 scale) [4, 24]: 0
Plant response rating, Corn [4, 21]: 0
Corn plant response rating [4, 25]: 0
Corn plant response rating [4, 22]: 10
Crabgrass, Large plant response rating [5, 25]: 0
Crabgrass, Large plant response rating [5, 22]: 0
Foxtail, Giant plant response rating (0 to 100 scale) [6, 24]: 0
Plant response rating, Foxtail, Giant [6, 21]: 50
Foxtail, Giant plant response rating [6, 25]: 0
Foxtail, Giant plant response rating [6, 22]: 0
Plant response rating, Lambsquarters [7, 21]: 0
Lambsquarters plant response rating [7, 25]: 0
Lambsquarters plant response rating [7, 22]: 0
Morningglory plant response rating (0 to 100 scale) [8, 24]: 0
Plant response rating, Morningglory [8, 21]: 0
Morningglory plant response rating [8, 25]: 0
Morningglory plant response rating [8, 22]: 10
Pigweed plant response rating (0 to 100 scale) [9, 24]: 0
Plant response rating, Pigweed [9, 21]: 0
Pigweed plant response rating [9, 25]: 0
Pigweed plant response rating [9, 22]: 20
Rice plant response rating (0 to 100 scale) ([10]; 125 g ai/ha, 0 = no effect, 100 = complete control): 0
Plant response rating, Rice [10, 23]: 0
Velvetleaf plant response rating (0 to 100 scale) [11, 24]: 0
Plant response rating, Velvetleaf [11, 21]: 10
Velvetleaf plant response rating [11, 25]: 0
Velvetleaf plant response rating [11, 22]: 10
Blackgrass plant response rating [12, 25]: 0
Blackgrass plant response rating [12, 26]: 10
Wheat plant response rating [13, 25]: 0
Wheat plant response rating [13, 22]: 10
Oat, Wild plant response rating [14, 25]: 0
Oat, Wild plant response rating [14, 22]: 10
Rice plant response rating [15]: 0
Sedge, Umbrella plant response rating [16]: 0
Ducksalad plant response rating [17]: 0
Barnyardgrass plant response rating [18]: 0

From patent US20060069132A1, “Azolecarboxamide herbicides” (priority 2004, published 2006)
